Results: the kinase profiling compilation of Christmann-Franck et al. (2016)

Legend:
Test in all cases: radiometric filter-binding kinase assay, Kinase HotSpot
Settings in all cases: compound 0.5 µM; ATP 10 µM
[1] = target: LTK (human) (UniProt P29376)
[2] = target: EPHA2 (human) (UniProt P29317)
[3] = target: PDGFRB (human) (UniProt P09619)
[4] = target: MST4 (human) (UniProt Q9P289)
[5] = target: ABL2 (human) (UniProt P42684)
[6] = target: MAP2K1 (human) (UniProt Q02750)
[7] = target: DAPK3 (human) (UniProt O43293)
DAPK3 (human), sequence (O43293 whole entry, looked up): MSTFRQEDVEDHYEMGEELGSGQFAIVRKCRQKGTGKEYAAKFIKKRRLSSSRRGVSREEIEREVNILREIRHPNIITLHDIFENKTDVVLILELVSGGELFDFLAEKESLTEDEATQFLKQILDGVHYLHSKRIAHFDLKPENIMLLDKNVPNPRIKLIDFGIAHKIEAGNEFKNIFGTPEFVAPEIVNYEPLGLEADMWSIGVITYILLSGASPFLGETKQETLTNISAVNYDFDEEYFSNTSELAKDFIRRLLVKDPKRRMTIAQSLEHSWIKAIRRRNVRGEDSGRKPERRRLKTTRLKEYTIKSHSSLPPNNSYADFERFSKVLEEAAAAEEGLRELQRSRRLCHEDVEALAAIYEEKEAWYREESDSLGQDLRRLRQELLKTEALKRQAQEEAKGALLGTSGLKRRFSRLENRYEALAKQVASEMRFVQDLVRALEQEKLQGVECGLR

PDGFRB (human), sequence (P09619 whole entry, looked up): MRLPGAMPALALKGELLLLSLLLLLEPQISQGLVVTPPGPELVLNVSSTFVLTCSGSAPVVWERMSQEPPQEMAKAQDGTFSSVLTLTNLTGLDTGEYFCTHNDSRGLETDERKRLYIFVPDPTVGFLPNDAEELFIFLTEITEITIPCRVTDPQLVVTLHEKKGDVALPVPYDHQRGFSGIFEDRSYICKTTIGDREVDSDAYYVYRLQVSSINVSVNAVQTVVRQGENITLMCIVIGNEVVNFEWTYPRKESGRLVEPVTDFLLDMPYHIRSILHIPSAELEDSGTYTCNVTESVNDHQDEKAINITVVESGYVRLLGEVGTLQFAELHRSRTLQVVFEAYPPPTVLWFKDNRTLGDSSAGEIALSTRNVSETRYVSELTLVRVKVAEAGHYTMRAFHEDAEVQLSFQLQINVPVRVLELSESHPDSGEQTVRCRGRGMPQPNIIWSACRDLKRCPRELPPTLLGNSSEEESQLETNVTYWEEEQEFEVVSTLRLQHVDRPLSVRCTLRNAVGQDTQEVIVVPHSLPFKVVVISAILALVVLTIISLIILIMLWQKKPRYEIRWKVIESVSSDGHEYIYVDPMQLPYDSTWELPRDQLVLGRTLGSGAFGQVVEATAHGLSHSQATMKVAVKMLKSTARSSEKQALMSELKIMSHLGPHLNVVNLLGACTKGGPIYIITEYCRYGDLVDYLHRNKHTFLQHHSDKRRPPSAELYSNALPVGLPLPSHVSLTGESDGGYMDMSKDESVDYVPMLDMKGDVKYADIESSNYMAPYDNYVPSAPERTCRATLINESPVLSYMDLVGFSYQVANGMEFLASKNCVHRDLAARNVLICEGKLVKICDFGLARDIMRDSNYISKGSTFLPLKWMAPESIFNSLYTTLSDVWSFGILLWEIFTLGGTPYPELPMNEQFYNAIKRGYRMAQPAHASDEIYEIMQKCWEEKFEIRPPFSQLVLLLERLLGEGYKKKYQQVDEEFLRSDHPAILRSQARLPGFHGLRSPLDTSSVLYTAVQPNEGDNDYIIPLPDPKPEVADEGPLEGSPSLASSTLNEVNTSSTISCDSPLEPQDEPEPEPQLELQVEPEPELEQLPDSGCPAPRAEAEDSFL
MAP2K1 (human), sequence (Q02750 whole entry, looked up): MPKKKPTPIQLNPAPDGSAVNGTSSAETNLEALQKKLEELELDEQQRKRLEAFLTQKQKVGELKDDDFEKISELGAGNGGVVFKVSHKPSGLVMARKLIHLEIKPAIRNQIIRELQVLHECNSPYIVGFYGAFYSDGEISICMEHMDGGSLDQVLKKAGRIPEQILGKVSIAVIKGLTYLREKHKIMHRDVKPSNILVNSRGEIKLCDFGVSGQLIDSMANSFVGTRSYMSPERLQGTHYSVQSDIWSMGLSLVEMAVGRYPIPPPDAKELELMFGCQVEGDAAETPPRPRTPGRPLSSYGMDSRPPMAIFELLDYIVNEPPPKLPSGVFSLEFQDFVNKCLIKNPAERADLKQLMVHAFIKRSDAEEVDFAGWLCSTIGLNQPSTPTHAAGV
ABL2 (human), sequence (P42684 whole entry, looked up): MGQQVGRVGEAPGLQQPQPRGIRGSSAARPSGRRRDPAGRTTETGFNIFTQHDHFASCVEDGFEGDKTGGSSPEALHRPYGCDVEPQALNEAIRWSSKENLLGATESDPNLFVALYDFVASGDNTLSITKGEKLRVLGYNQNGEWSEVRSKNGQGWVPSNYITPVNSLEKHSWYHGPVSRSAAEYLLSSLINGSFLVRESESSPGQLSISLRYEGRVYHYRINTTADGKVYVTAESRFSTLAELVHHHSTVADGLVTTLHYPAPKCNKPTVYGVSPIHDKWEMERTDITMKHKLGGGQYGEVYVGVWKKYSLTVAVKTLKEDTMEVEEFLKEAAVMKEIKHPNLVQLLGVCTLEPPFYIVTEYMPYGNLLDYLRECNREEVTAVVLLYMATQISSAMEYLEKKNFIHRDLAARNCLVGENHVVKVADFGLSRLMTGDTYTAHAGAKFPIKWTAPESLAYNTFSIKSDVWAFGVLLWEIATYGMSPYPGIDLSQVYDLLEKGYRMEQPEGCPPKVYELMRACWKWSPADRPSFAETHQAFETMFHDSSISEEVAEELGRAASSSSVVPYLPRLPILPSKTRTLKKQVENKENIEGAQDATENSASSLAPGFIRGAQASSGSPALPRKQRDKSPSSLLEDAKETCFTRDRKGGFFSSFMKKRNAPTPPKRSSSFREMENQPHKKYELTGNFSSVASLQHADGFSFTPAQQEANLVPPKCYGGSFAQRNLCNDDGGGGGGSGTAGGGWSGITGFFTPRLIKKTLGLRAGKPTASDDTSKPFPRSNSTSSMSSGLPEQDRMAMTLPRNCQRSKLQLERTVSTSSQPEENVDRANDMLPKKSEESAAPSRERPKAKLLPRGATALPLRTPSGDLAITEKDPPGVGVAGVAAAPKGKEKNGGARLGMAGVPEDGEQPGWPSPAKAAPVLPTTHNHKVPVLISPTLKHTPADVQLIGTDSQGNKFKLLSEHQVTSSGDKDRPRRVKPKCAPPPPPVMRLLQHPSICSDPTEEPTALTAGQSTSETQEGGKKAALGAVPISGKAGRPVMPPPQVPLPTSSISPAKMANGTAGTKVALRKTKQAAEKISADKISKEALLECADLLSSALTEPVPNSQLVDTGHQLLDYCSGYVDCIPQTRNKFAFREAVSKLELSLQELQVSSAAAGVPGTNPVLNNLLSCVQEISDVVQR
MST4 (human), sequence (Q9P289 whole entry, looked up): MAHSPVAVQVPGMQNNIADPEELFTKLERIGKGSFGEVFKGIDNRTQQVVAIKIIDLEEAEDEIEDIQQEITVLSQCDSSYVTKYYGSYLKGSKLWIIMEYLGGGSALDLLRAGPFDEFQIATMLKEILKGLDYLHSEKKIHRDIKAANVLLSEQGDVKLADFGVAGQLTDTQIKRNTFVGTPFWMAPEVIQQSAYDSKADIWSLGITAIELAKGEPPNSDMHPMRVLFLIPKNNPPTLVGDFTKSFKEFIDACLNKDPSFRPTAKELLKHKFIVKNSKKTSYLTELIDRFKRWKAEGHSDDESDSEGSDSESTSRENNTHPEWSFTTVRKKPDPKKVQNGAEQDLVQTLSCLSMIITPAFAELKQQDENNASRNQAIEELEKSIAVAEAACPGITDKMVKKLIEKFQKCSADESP
LTK (human), sequence (P29376 whole entry, looked up): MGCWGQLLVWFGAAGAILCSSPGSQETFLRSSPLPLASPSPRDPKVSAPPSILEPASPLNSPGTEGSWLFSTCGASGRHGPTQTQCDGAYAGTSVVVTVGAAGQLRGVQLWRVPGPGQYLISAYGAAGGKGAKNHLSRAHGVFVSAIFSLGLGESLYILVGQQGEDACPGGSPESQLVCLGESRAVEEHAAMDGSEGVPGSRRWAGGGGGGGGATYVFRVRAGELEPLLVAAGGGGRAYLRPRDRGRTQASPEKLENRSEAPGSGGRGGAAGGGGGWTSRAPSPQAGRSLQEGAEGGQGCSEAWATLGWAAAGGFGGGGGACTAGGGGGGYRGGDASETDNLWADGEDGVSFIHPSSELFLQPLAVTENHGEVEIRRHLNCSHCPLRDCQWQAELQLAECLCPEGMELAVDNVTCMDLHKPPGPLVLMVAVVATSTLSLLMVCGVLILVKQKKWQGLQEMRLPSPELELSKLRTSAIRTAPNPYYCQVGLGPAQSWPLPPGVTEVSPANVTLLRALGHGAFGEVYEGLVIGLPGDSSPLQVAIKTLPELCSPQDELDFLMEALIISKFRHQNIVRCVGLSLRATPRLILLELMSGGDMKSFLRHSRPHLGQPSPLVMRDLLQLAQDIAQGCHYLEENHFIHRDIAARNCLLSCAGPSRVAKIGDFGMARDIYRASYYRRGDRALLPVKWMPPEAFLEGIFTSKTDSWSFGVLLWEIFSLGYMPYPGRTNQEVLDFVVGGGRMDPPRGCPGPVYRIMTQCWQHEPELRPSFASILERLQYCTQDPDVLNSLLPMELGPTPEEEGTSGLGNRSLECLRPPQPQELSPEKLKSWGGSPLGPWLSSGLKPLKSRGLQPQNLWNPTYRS

For CN[C@@H]1C[C@H]2O[C@@](C)([C@@H]1OC)n1c3ccccc3c3c4c(c5c6ccccc6n2c5c31)C(=O)NC4, which residual activity [1] is on record?
The residual activity was 0.543%.

And the residual activity [2]?
Its residual activity is 21.3%.

What about the residual activity [3] of the same compound?
Its residual activity is 2.28%.

What about the residual activity [4] of the same compound?
The residual activity was 4.43%.

And the residual activity [5]?
The residual activity was 5.25%.

And the residual activity [6]?
Its residual activity is 3.83%.

And the residual activity [7]?
Its residual activity is 1.91%.
